Assays:
C‐26 tumor‐bearing mice [1] = experiment: Confirmatory AR‐42/GTx‐024 combination study (Study 2), male C‐26 tumor‐bearing mice; format: in vivo, mouse
Protocol: (§1) These studies were performed as previously described (Tseng et al, 2015a) with modifications. Tumors were established in the right flank of CD2F1 mice by subcutaneous injection of C‐26 cells (0.5 × 10^6 cells in 0.1 ml). […] TFM‐4AS‐1 (a potent experimental SARM), DHT, and vehicles were administered by subcutaneous injection.
This confirmatory study was performed exactly as Study 1 with expanded animal numbers. Tumor‐free control groups were maintained at 6 animals each, whereas 10 animals were included in each of the tumor‐bearing groups. […] Grip strength was measured on study days 0 (baseline) and 16. Due to rapid model progression, this study was terminated on day 17 after only 12 days of treatment.
Forelimb grip strength was measured using Bio‐GS3 Grip Strength Test Meter (Forceleader DBA Bioseb, Pinellas Park, FL). Each mouse was held by the base of its tail and lowered over the apparatus until its forepaws grasped the metal pull bar. The mouse was then gently pulled horizontally in a straight line away from the grip strength meter until the mouse released the bar. The force applied to the bar at the moment of release was recorded as the peak force. Five measurements were taken from each mouse, the average of which was designated as the mouse's grip strength.

pSTAT3 (Y705) = experiment: pSTAT3/tSTAT3 Western blot of gastrocnemius muscle; format: in vivo, mouse
Protocol: Western blots from all studies were performed on gastrocnemius muscle from representative animals lysed by Nonidet P‐40 isotonic lysis buffer [50 mM Tris–HCl, pH 7.5, 120 mM NaCl, 1% (v/v) Nonidet P‐40, 1 mM EDTA, 50 mM NaF, 40 mM glycerophosphate, and […] each of protease inhibitors (aprotinin, pepstatin, and leupeptin)]. Equivalent amounts of protein from each sample, as determined by the Bradford assay (Bio‐Rad), were resolved by SDS–PAGE and then transferred (semi‐dry) onto Immobilon nitrocellulose membranes (Millipore, Bellerica, MA). Membranes were washed twice with TBST [Tris‐buffered saline (TBS) containing 0.1% Tween‐20], blocked with 5% non‐fat milk in TBST for 1 h, and then washed an additional three times. Membranes were incubated with specific primary antibody in TBST (1:1,000) at 4°C overnight, washed three times (TBST), and then incubated with appropriate goat anti‐rabbit or anti‐mouse IgG–horseradish peroxidase‐conjugated secondary antibodies (1:5,000) at room temperature (1 h). Following additional washes (TBST), immunoblots were visualized as appropriate by ECL chemiluminescence (Amersham Biosciences, Little Chalfont, United Kingdom) or Duration HRP Chemiluminescence (Alkali Scientific, Florida, United States). Primary antibodies: phospho‐STAT3 (Tyr705) (D3A7) XP® rabbit mAb #9145, STAT3 (124H6) mouse mAb #9139 (Cell Signaling Technology, Danvers, MA); α‐tubulin (B‐7), sc‐5286 (Santa Cruz Biotechnologies, Santa Cruz, CA); androgen receptor (EP670Y), ab52615 (Abcam, Cambridge, MA) and GAPDH (6C5), sc‐32233 (Santa Cruz Biotechnologies, Santa Cruz, CA).

LLC tumor‐bearing mice = experiment: AR‐42/GTx‐024 combination study in the LLC cachexia model (Study 5); format: in vivo, mouse; conditions: repeat of Study 5; 10 mg/kg AR‐42, 0.5 mg/kg GTx‐024, or both
Protocol: This study was performed as previously described (Tseng et al, 2015a) with modifications. Tumors were established in the right hindlimb of male C57BL/6NHsd mice by intramuscular injection of LLC cells (0.5 × 10^6 cells in 0.05 ml). Similar to Study 3, the tumor‐free control group was maintained at six animals, whereas 12 animals were included in each of the tumor‐bearing groups. […] Grip strength, body weight, and food consumption were measured, and tissues were collected as in the previous C‐26 studies.

[2] = design: method as in Sborov et al, 2017; conditions: patients; ref Sborov et al, 2017; cited from earlier work
class I HDACs = experiment: In vitro HDAC inhibition assay, class I isoforms; format: biochemical, human; conditions: 1 μM AR‐42; range over isoforms
Protocol: (§2) HDAC activity was measured by a commercial vendor using human recombinant HDAC enzymes and fluorogenic HDAC substrates (Eurofins Cerep SA, Celle L'Evescault, France). Substrate concentrations ranged from 20 to 400 μM, and incubation conditions ranged from 10 to 90 min (RT or 37°C), depending on isoform. Results are expressed as percent inhibition of control specific activity in the presence of 1 μM AR‐42.

IIb HDACs = experiment: In vitro HDAC inhibition assay, class IIb isoforms; format: biochemical, human; conditions: 1 μM AR‐42; range over isoforms
Protocol: as §2

C‐26 tumor‐bearing mice [3] = experiment: AR‐42 dose–response study in the C‐26 cachexia model; format: in vivo, mouse
Protocol: as §1
Therefore the efficacy and associated exposures of reduced doses of AR‐42 were determined. Male CD2F1 mice were stratified by body weight and then randomly assigned into five groups of six animals each. C‐26 tumors were established in four of the groups, while those in the fifth group, serving as tumor‐free controls, were injected with sterile saline. Six days later, animals with palpable tumors were treated with AR‐42 once daily at 10 (n = 5) and 20 mg/kg (n = 6), and every other day at 50 mg/kg (n = 5, the originally described anti‐cachectic dose; Tseng et al, 2015a), or vehicle control (n = 4) for 13 days. Upon sacrifice on study day 18, when the majority of tumor‐bearing control mice met euthanasia criteria, the left gastrocnemius muscle was excised, flash‐frozen in liquid nitrogen, and stored at −80°C for subsequent analyses. Carcass weights were corrected for tumor weight by assuming a tumor density equivalent to water (1 g/cm^3). […] This study was performed as described above with animals treated with AR‐42 once daily at 1, 3, and 10 mg/kg or with vehicle control (n = 8).

[4] = Study 2, AR‐42 10 mg/kg alone or with GTx‐024 15 mg/kg

In the case of `CC(C)[C@H](C(=O)Nc1ccc(C(=O)NO)cc1)c1ccccc1` [AR‐42], the “effect on adipose tissue (epididymal fat pad)” value (C‐26 tumor‐bearing mice [1]; Study 2, 10 mg/kg) is reported as “no impact on adipose tissue”, the “forelimb grip strength over vehicle‐treated tumor‐bearing controls” value (C‐26 tumor‐bearing mice [1]; [4]) is reported as “improved grip strength” and the “gastrocnemius and quadriceps mass relative to GTx‐024 monotherapy” value (C‐26 tumor‐bearing mice [1]; [4]) is reported as “significantly improved gastrocnemius and quadriceps mass”. The pSTAT3 in gastrocnemius (pSTAT3 (Y705); female C‐26 tumor‐bearing mice, Study 3) was “reduced levels of pSTAT3 activation”, the pSTAT3 in gastrocnemius (pSTAT3 (Y705); male C‐26 tumor‐bearing mice, Study 1) was “reduced pSTAT3 but not equally in all animals” and the “response of body weight and skeletal muscle mass loss” value (LLC tumor‐bearing mice) was “did not respond”. For the same compound, the “well‐tolerated plasma exposure in humans” value [2] was 8.5 µM·h, the “inhibition of class I HDACs” value (class I HDACs) was 72–95% and the “inhibition of class IIb HDACs” value (IIb HDACs) was 86–100%. The “minimally efficacious dose (anti‐cachectic)” value (C‐26 tumor‐bearing mice [3]; daily oral, 13 days, C‐26 model) was 10 mg/kg, the “effect on C‐26 tumor‐mediated reductions in tumor‐corrected body weight and gastrocnemius mass” value (C‐26 tumor‐bearing mice [3]; lower doses (1, 3 mg/kg daily)) was “not effective” and the “effect on C‐26 tumor‐mediated reductions in tumor‐corrected body weight and gastrocnemius mass” value (C‐26 tumor‐bearing mice [3]; thirteen daily oral doses of 20 or 10 mg/kg) was “ameliorated”.

Source: article PMC7005646, “Overcoming resistance to anabolic SARM therapy in experimental cancer cachexia with an HDAC inhibitor” (EMBO Molecular Medicine, 2020)
